The record followed here is patent publication US7375124B2, “Use of α-phenylthiocarboxylic and α-phenyloxycarboxylic acids with serum-glucose-lowering and serum-lipid-lowering activity” (Sigma-Tau Industrie Farmaceutiche Riunite S.p.A., priority 2002, dated 2008).

This assay deals with T1, mPPARαLBD/Gal4DBD (Mus musculus, UniProt P23204).
T1 construct: expressed in transfected cells; host or cells: COS-7 (monkey kidney fibroblasts)
T1 sequence (P23204 239-466 limits assumed): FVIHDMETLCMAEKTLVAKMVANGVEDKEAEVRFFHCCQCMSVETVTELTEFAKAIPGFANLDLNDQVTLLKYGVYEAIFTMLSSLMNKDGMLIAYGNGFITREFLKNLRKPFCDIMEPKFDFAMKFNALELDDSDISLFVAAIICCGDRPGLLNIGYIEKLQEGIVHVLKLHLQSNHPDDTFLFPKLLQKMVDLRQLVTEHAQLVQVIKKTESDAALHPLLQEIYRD
In words: Transactivation assay mediated by mPPARαLBD/Gal4DBD in COS-7 cells (CAT reporter). The class given is cell-based. The source says: In this model a transactivation assay is used in which the expression vector mPPARαLBD/Gal4 DBD allows the synthesis by the transfected cell of a chimeric protein, in which the ligand binding domain (LBD) of PPARα is fused with the DNA binding domain (DBD) of the transcription factor GAL4 of yeast [Luckow B. et al., Nucleic Acids Res. 15, 5490 (1987)]. Simultaneously, a plasmid (pG5CAT) is transfected which contains 5 copies of the high-affinity binding site for GAL4 (also called UAS, upstream activating sequence), upstream of the viral promoter E1b fused with the CAT reporter gene [Moya-Camarena S. Y. et al., J. Lipid Res. 40 (8), 1426-33 (1999)]. This model eliminates interference by possible endogenous receptors.
This is due to the fact that the activation of E1b and the production of CAT will occur exclusively thanks to the interaction of GAL4 DBD with its own response element (UAS). Since the transcription factor GAL4 is not expressed in […] cells, transactivation of the reporter gene can take place only when, as a result of the interaction of a ligand with the LBD of PPARα, the chimeric protein PPARα/GAL4 recognises the UAS sequence on the plasmid pG5CAT. Together with the expression vector and the reporter vector the cells were also transfected with the plasmid pCH110 which provides the internal control for the efficiency of transfection and the normalisation of the results.
A monkey kidney fibroblast cell line (COS-7) was used [Elbrecht A. et al., J. Biol. Chem. 274 (12), 7913-22 (1999)]. The cells were co-transfected with the reporter vector, the expression plasmid coding for the fusion protein Gal4 DBD/PPARαLBD and the control vector pCH110. The cells were exposed to increasing concentrations of the study compounds and CAT activity was evaluated. Untreated cells were used as controls.
Monkey kidney fibroblasts (COS-7) were cultured according to the usual cell culture techniques, at 37° C. in a 5% v/v carbon dioxide atmosphere using as the growth medium DMEM (Dulbecco's modified Eagle's medium) modified with 3.7 g/l of sodium bicarbonate, 4 mM L-glutamine, 4.5 g/l of glucose, 1 mM sodium pyruvate and 10% v/v of foetal bovine serum, in the presence of streptomycin 100 μg/ml and penicillin 100 U/ml final.
The cells were co-transfected using the transfection reagent FuGENE6 (Roche), consisting of a defined mixture of lipids capable of complexing the DNA and of transporting it into the cells. Twenty-four hours prior to transfection the cells were plated at a density of 1.2×10^5 cells/well in 12-well plates and maintained at 37° C. in a 5% v/v CO2 atmosphere. […] Briefly, the transfection mixture containing 0.8 μg of the expression vector, 1.6 μg of the reporter vector, 0.8 μg of the control vector and 9 μl of the FuGENE6 reagent per well was added directly to the cells in the presence of culture medium devoid of serum. After 5 hours, the transfection medium was replaced by 1 ml of culture medium complete with serum and antibiotics in the presence or absence of the molecules to be tested at 3 different concentrations (2, 20 and 100 μM). Wy-14,643 (2 μM), a known ligand of PPARα, was used as the positive reference compound.
After 48 hours' incubation at 37° C. in a 5% v/v CO2 atmosphere, the cells were washed twice with 1 ml of phosphate buffer (PBS) and removed mechanically from the wells in TEN buffer (Tris[hydroxymethyl]aminomethane 10 mM pH 8, ethylenediamine-tetraacetic acid 1 mM pH 8, sodium chloride 0.1 M). After centrifuging for 3 minutes at 1000 rpm, the cells were resuspended in 65 μl of lysis buffer (Tris-HCl 0.25 M, pH 8) and then lysed thanks to three rapid freeze-thaw cycles. The insoluble cellular materials (debris) were removed by centrifuging at 15,000 rpm for 15 minutes at 4° C., and the supernatant was recovered and used for the CAT and β-galactosidase activity assays. […]

Consider `COC(=O)C(C)(C)Sc1cccc(OCCc2ccc(Cl)cc2Cl)c1` [Example 4, methyl 2-[3-(2-(2,4-dichlorophenyl)ethoxy)phenylthio]isobutyrate], for which the “Activation of reporter gene CAT as a percentage of the reference compound (WY-14,643 2 μM = 100%)” value (2 μM) is listed as 113.1%, the “Activation of reporter gene CAT as a percentage of the reference compound (WY-14,643 2 μM = 100%)” value (20 μM) is 284.9% and the “Activation of reporter gene CAT as a percentage of the reference compound (WY-14,643 2 μM = 100%)” value (100 μM) was found to be 421%.

As for `COC(=O)C(C)(C)Sc1cccc(OCCc2ccc3ccccc3c2)c1` [Example 10, methyl 2-[3-[2-(2-naphthyl)ethoxy]phenylthio]isobutyrato], the “Activation of reporter gene CAT as a percentage of the reference compound (WY-14,643 2 μM = 100%)” value reads like this: (2 μM) 98.1%; (20 μM) 360%; (100 μM) 462.7%.
